# What was measured:
# Type in all cases: in vivo
# Carpenter ants [1] = test: Repellent effect on carpenter ants (treated filter paper); conditions: DEET in concentrations of about 5 to 10%
# Description: (§1) Adult insect are randomly selected for testing the repellent effect of compositions and are not individually marked. About 5 insects per replicate are used. About 3 replicates are used for each treatment. Untreated control tests are included with only solvent (acetone) application to an equal sized population/replications, held under identical conditions. A filter paper (about 80 cm^2) is treated with the composition (about 100 mg in […] acetone). After about 3 min of air drying, the filter paper is placed in a dish and repellency against insects is performed. Insects are released to the dish, one insect at a time at the far end of the dish. Using one or more stopwatches, the time spent on either the filter paper or the untreated surface of the dish is recorded up to about 300 seconds. Repellency ratio (RR) is calculated as follows: RR=[(time on control surface−time on treated surface)/total time of test]. If RR>0 then the composition is considered to have a repellant effect, that is to say, an effect, wherein more insects are repelled away from treated surface than the control surface; if RR<0 then the composition is considered not to have a repellant effect.
# The repellent effect of various plant essential oils is tested by treating a filter paper with the test oils. […] The repellency is determined as described above, in Example 14. […]
# Carpenter ants [2] = test: as above
# Description: as §1
# (§2) The repellent effect of various plant essential oils is tested by treating a filter paper with the test oils. After about five minutes at room temperature, the paper is placed in a dish and ants are introduced one at a time. The repellency is determined as described above, in Example 14. Oils are tested alone. Additionally, oils are mixed to form compositions, which are then tested.
# For purposes of comparison to the repellent effect of various compositions made of various plant essential oils, the repellency of an insect control agent, the commercial repellent 29% DEET, which may be purchased under the name, REPEL® (Wisconsin Pharmacal Company, Inc, Jackson, Wyo.), is measured against Carpenter ants by treating a filter paper with the 29% DEET. After about five minutes at room temperature, the paper is placed in a dish and ants are introduced one at a time. The repellency is determined as described above, in Example 14.
# as §2, with “of commercial repellent DEET and” for “of”
# red ants = test: Repellent effect on red ants (visits to treated paper disk); conditions: for number of trips by red ants to treated paper disk: 100%
# Description: Repellent effect of various compositions containing plant essential oils on red ants is tested in the following manner. A paper disk is treated with about 200 μl of each composition and placed in a dish. An untreated paper disk is placed in a control dish. Also, a paper disk is treated with about 200 μl 100% DEET and placed in a dish to compare the repellant effect of the compositions to that of DEET. Red ants are introduced into each dish. Insect behavior and number of visits to the treated paper disk are monitored for about 5 minutes. The number of visits by a red ant to the paper disk is recorded.
# Residuality, with regard to pesticidal effect and repellent effect, is tested by treating a paper disk with the composition being tested, keeping the treated paper disk under laboratory conditions for a predetermined period of time (e.g., 0 min, 6 hours, 1 day, 3 days, 5 days, 7 days), and exposing red ants to the treated paper disk in the above described manners.
# [3] = test system: head lice Pediculus humanus capitus; test: Pesticidal effect on head lice; conditions: time to kill 100% of the lice, dissolved in water
# Description: (§3) Live adult head lice Pediculus humanus capitus are collected from female and male children between the age of about 4 and 11 living in the Karmos area, Alexandria, Egypt. The insects are collected using fine-toothed louse detector comb and pooled together. The collected lice are kept in dishes and used in the studies within about 30 minutes of their collection.
# (§4) Various concentrations of the compositions being tested are prepared in water To allow the pesticidal effect of these compositions to be compared to that of a commercially available lice-killing agent, ivermectin, is dissolved in water. About 1 ml of each concentration of the compositions are applied to a dish, about 1 ml of the ivermectin solution is applied to a dish, and about 1 ml of water is applied to a control dish. About 10 adult head lice are introduced to each dish.
# (§5) Treated and control dishes are kept under continuous observation and LT100 is observed. LT refers to the time required to kill a given percentage of insects; thus, LT100 refers to the time required to kill 100% of the lice. Head lice is considered dead if no response to a hard object is found.
# [4] = test system: head lice Pediculus humanus capitus; test: Pesticidal effect on head lice (LT100); conditions: about 1 ml in dish, about 10 adult head lice
# Description: as §3, §4, §5
compound,measurement,setting,value
CCN(CC)C(=O)c1cccc(C)c1 [DEET],repellency,Carpenter ants [1],no signs of repellency
same,Sec on T,"Carpenter ants [2]; 5% DEET, Day 0",282 (10) Sec
same,Sec on T,"Carpenter ants [2]; 10% DEET, Day 0",260 (6) Sec
same,sec. on T surface,"Carpenter ants [2]; 29% DEET (REPEL), Day 0",02.4 s
same,repellency,"Carpenter ants [2]; DEET about 5 to 10%, in words",no signs of repellency
same,number of trips by the red ants to the treated paper disks,red ants; 0 min after treatment of disk,0
same,residuality of repellent effect,"red ants; 100% DEET, in words",begins to loose potency after 1 day
same,number of trips by red ants to treated paper disk,"red ants; 0 min after treatment, about 5 minutes observation",0
same,number of trips by red ants to treated paper disk,red ants; 6 hours after treatment,0
same,number of trips by red ants to treated paper disk,red ants; 1 day after treatment,1
same,number of trips by red ants to treated paper disk,red ants; 3 days after treatment,2
same,number of trips by red ants to treated paper disk,red ants; 5 days after treatment,2
same,number of trips by red ants to treated paper disk,red ants; 7 days after treatment,2
same,number of trips by the red ants to the treated paper disks,red ants; 6 hours after treatment of disk,0
same,number of trips by the red ants to the treated paper disks,red ants; 1 day after treatment of disk,1
same,number of trips by the red ants to the treated paper disks,red ants; 3 days after treatment of disk,2
same,number of trips by the red ants to the treated paper disks,red ants; 5 days after treatment of disk,2
same,number of trips by the red ants to the treated paper disks,red ants; 7 days after treatment of disk,2
ivermectin [listing 1 of 2 here],LT100,[3],5 min
ivermectin [listing 2 of 2 here],LT100 (time required to kill 100% of the lice),[4],5 min

# Source: patent publication US20080075796A1, “Compositions and Methods for Controlling Insects” (TyraTech, Inc., priority 2003, published 2008)
